Assay results: PubChem BioAssay AID328 (DTP/NCI, 2004)
Several values for one entry are separate records, joined by “and”; a condition that tells them apart may be missing. Identical values can stand only once. Inconclusive results and toxic doses are left out.

Tested on: BDF1 mice, P388 leukemia ip, median survival T/C
Assay: NCI In Vivo Anticancer Drug Screen. Data for tumor model P388 Leukemia (intraperitoneal) in B6D2F1 (BDF1) mice
Details: endpoint: median survival time, higher = longer survival
Method in brief: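 Steps: implant the tumour, treat one group with compound and another with vehicle, record survival, then divide treated by control.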

[1] = dose: 50.0 mg/kg/injection, schedule: Q04DX003 (ip), vehicle: saline with Tween-80
[2] = dose: 100.0 mg/kg/injection, schedule: Q04DX003 (ip), vehicle: saline with Tween-80
[3] = dose: 200.0 mg/kg/injection, schedule: Q04DX003 (ip), vehicle: saline with Tween-80
[4] = dose: 50.0 mg/kg/injection, schedule: Q01DX009 (ip), vehicle: saline with Tween-80
[5] = dose: 100.0 mg/kg/injection, schedule: Q01DX009 (ip), vehicle: saline with Tween-80
[6] = dose: 200.0 mg/kg/injection, schedule: Q01DX009 (ip), vehicle: saline with Tween-80
[7] = dose: 25.0 mg/kg/injection, schedule: Q01DX009 (ip), vehicle: saline with Tween-80
[8] = dose: 50.0 mg/kg/injection, schedule: Q04DX003 (ip), vehicle: water
[9] = dose: 50.0 mg/kg/injection, schedule: Q01DX009 (ip), vehicle: saline
[10] = dose: 50.0 mg/kg/injection, schedule: Q04DX003 (ip), vehicle: saline
[11] = dose: 100.0 mg/kg/injection, schedule: Q01DX009 (ip), vehicle: saline
[12] = dose: 100.0 mg/kg/injection, schedule: Q04DX003 (ip), vehicle: water
[13] = dose: 200.0 mg/kg/injection, schedule: Q04DX003 (ip), vehicle: water
[14] = dose: 400.0 mg/kg/injection, schedule: Q04DX003 (ip), vehicle: water

C=C(C)C12OC3(c4ccccc4)OC1C1C4OC4(CO)C(O)C4(O)C(=O)C(C)=CC4C1(O3)C(C)C2OC(=O)c1ccccc1 (centres undefined)
T/C (dose: 6.3 micrograms/kg/injection, schedule: Q01DX009 (ip), vehicle: saline + alcohol): 106 % of control | T/C (dose: 12.5 micrograms/kg/injection, schedule: Q01DX009 (ip), vehicle: saline + alcohol): 108 % of control | T/C (dose: 200.0 micrograms/kg/injection, schedule: Q01DX009 (ip), vehicle: saline + alcohol): 150 % of control

CCC(CC)OC(=O)c1cccc(C)c1
T/C [1]: 104 % of control | T/C [2]: 108 % of control | T/C [3]: 101 % of control

O=[N+]([O-])c1ccccc1N/N=C\c1c(Cl)[nH]c2ccccc12
T/C (dose: 200.0 mg/kg/injection, schedule: Q04DX002 (ip), vehicle: Klucel (hydroxypropylcellulose) (HPC)): 90 % of control | T/C (dose: 400.0 mg/kg/injection, schedule: Q04DX002 (ip), vehicle: Klucel (hydroxypropylcellulose) (HPC)): 90 % of control

O=C(N=Nc1c(O)[nH]c2c(Cl)cc(Cl)cc12)c1ccccc1O
T/C [4]: 90 % of control | T/C [5]: 87 % of control | T/C [6]: 96 % of control

O=C1C(C2CCCCC2)CCCC1C1CCCCC1 (centres undefined)
T/C (dose: 100.0 mg/kg/injection, schedule: Q01DX001 (ip), vehicle: saline with Tween-80): 107 % of control | T/C (dose: 200.0 mg/kg/injection, schedule: Q01DX001 (ip), vehicle: saline with Tween-80): 98 % of control

c1ccc(-c2cc3c(N4CCOCC4)nnc(N4CCOCC4)c3cn2)cc1
T/C [4]: 89 % of control | T/C [5]: 86 % of control

CCOC(=O)C(Cc1ccc(N(CCCl)CCCl)cc1)NC(=O)CNC(C)=O (centres undefined)
T/C (dose: 12.5 mg/kg/injection, schedule: Q04DX003 (ip), vehicle: saline with Tween-80): 177 % of control | T/C (dose: 25.0 mg/kg/injection, schedule: Q04DX003 (ip), vehicle: saline with Tween-80): 200 % of control | T/C (dose: 33.0 mg/kg/injection, schedule: Q04DX003 (ip), vehicle: saline with Tween-80): 280 % of control and 218 % of control | T/C [1]: 259 % of control and 272 % of control and 170 % of control | T/C (dose: 75.0 mg/kg/injection, schedule: Q04DX003 (ip), vehicle: saline with Tween-80): 204 % of control

NC(=S)N/N=C/c1ccc(OC(=O)COc2ccccc2)cn1
T/C (dose: 1.56 mg/kg/injection, schedule: Q01DX009 (ip), vehicle: saline with Tween-80): 124 % of control | T/C (dose: 12.5 mg/kg/injection, schedule: Q01DX009 (ip), vehicle: saline with Tween-80): 163 % of control | T/C [7]: 181 % of control | T/C [4]: 209 % of control | T/C [5]: 235 % of control

O=P(c1ccccc1)(N1CC1)N1CC1
T/C (dose: 7.5 mg/kg/injection, schedule: Q01DX009 (ip), vehicle: saline): 109 % of control | T/C (dose: 15.0 mg/kg/injection, schedule: Q01DX009 (ip), vehicle: saline): 123 % of control | T/C (dose: 30.0 mg/kg/injection, schedule: Q01DX009 (ip), vehicle: saline): 119 % of control

O=C1C2C(C(=O)N1c1ccc(OCc3ccccc3)cc1)C1c3ccccc3C2C2CCCCN21 (centres undefined)
T/C (dose: 3.13 mg/kg/injection, schedule: Q04DX003 (ip), vehicle: water): 93 % of control | T/C (dose: 6.25 mg/kg/injection, schedule: Q04DX003 (ip), vehicle: water): 101 % of control | T/C (dose: 12.5 mg/kg/injection, schedule: Q04DX003 (ip), vehicle: water): 97 % of control | T/C (dose: 25.0 mg/kg/injection, schedule: Q04DX003 (ip), vehicle: water): 101 % of control | T/C [8]: 99 % of control

O=C(O)c1c(C(=O)O)c(C(=O)O)c(C(=O)O)c(C(=O)O)c1C(=O)O
T/C (dose: 20.0 mg/kg/injection, schedule: Q01DX009 (ip), vehicle: saline): 107 % of control | T/C (dose: 40.0 mg/kg/injection, schedule: Q01DX009 (ip), vehicle: saline): 117 % of control | T/C (dose: 80.0 mg/kg/injection, schedule: Q01DX009 (ip), vehicle: saline): 98 % of control

Cc1ccc(C[P+](c2ccccc2)(c2ccccc2)c2ccccc2)cc1
T/C (dose: 2.5 mg/kg/injection, schedule: Q01DX010 (ip), vehicle: saline): 114 % of control | T/C (dose: 5.0 mg/kg/injection, schedule: Q01DX010 (ip), vehicle: saline): 114 % of control | T/C (dose: 10.0 mg/kg/injection, schedule: Q01DX010 (ip), vehicle: saline): 104 % of control

C1CC[N-]CC1.C1CC[N-]CC1.C1CC[N-]CC1.[Cl][Cr]([Cl])[Cl]
T/C (dose: 50.0 mg/kg/injection, schedule: Q01DX009 (ip), vehicle: Klucel (hydroxypropylcellulose) (HPC)): 90 % of control | T/C (dose: 100.0 mg/kg/injection, schedule: Q01DX009 (ip), vehicle: Klucel (hydroxypropylcellulose) (HPC)): 100 % of control

COc1ccc(CC[N+]2=Cc3cc(OC)c(OC)cc3CC2)cc1OC
T/C (dose: 6.25 mg/kg/injection, schedule: Q01DX009 (ip), vehicle: saline): 104 % of control and 111 % of control | T/C (dose: 12.5 mg/kg/injection, schedule: Q01DX009 (ip), vehicle: saline): 100 % of control | T/C (dose: 12.5 mg/kg/injection, schedule: Q04DX003 (ip), vehicle: saline): 109 % of control | T/C (dose: 25.0 mg/kg/injection, schedule: Q01DX009 (ip), vehicle: saline): 100 % of control and 104 % of control | T/C (dose: 25.0 mg/kg/injection, schedule: Q04DX003 (ip), vehicle: saline): 117 % of control | T/C [9]: 95 % of control and 103 % of control and 107 % of control | T/C [10]: 101 % of control and 103 % of control | T/C [11]: 98 % of control | T/C (dose: 150.0 mg/kg/injection, schedule: Q01DX009 (ip), vehicle: saline): 95 % of control

CN1/C(=C/C=C(/N=C(C#N)C#N)c2ccccc2)C(C)(C)c2ccccc21
T/C [4]: 95 % of control | T/C [5]: 98 % of control | T/C [6]: 98 % of control

CN(C)CC#N
T/C (dose: 10.0 mg/kg/injection, schedule: Q04DX003 (ip), vehicle: saline): 108 % of control | T/C (dose: 20.0 mg/kg/injection, schedule: Q04DX003 (ip), vehicle: saline): 91 % of control | T/C (dose: 40.0 mg/kg/injection, schedule: Q04DX003 (ip), vehicle: saline): 95 % of control

O=C(CBr)c1cccc(OC(=O)c2ccccc2)c1
T/C (dose: 25.0 mg/kg/injection, schedule: Q04DX003 (ip), vehicle: Klucel (hydroxypropylcellulose) (HPC)): 96 % of control | T/C (dose: 50.0 mg/kg/injection, schedule: Q04DX003 (ip), vehicle: Klucel (hydroxypropylcellulose) (HPC)): 88 % of control

CCC([NH-])=O.CCC([NH-])=O.[Pt+2]
T/C [12]: 101 % of control | T/C [13]: 101 % of control | T/C [14]: 101 % of control

NC1=C(N2CC2)C(=O)C(N)=C(N2CC2)C1=O
T/C (dose: 100.0 micrograms/kg/injection, schedule: Q01DX009 (ip), vehicle: saline): 178 % of control

O=C1Oc2ccccc2C1=O
T/C [9]: 100 % of control | T/C [10]: 100 % of control | T/C [11]: 100 % of control | T/C (dose: 100.0 mg/kg/injection, schedule: Q04DX003 (ip), vehicle: saline): 100 % of control | T/C (dose: 200.0 mg/kg/injection, schedule: Q04DX003 (ip), vehicle: saline): 100 % of control

COc1cc([C@@H]2Oc3cc([C@@H]4Oc5cc(O)cc(O)c5C(=O)[C@H]4O)ccc3O[C@H]2CO)ccc1O
T/C [2]: 107 % of control | T/C [3]: 93 % of control | T/C (dose: 400.0 mg/kg/injection, schedule: Q04DX003 (ip), vehicle: saline with Tween-80): 97 % of control

CCOC1OCN(c2cccc(Cl)c2)CC1(C)C (centres undefined)
T/C [4]: 98 % of control | T/C [5]: 112 % of control | T/C [6]: 114 % of control

CC(=O)Nc1ccc2cnn(C(C)=O)c2c1
T/C (dose: 25.0 mg/kg/injection, schedule: Q01DX009 (ip), vehicle: water): 89 % of control | T/C (dose: 50.0 mg/kg/injection, schedule: Q01DX009 (ip), vehicle: water): 86 % of control | T/C [8]: 113 % of control | T/C (dose: 100.0 mg/kg/injection, schedule: Q01DX009 (ip), vehicle: water): 88 % of control | T/C [12]: 111 % of control | T/C (dose: 200.0 mg/kg/injection, schedule: Q01DX009 (ip), vehicle: water): 92 % of control | T/C [13]: 97 % of control | T/C (dose: 400.0 mg/kg/injection, schedule: Q01DX009 (ip), vehicle: water): 91 % of control | T/C [14]: 97 % of control

CCCCN(C)N=Nc1c(C(N)=O)n[nH]c1C
T/C (dose: 22.0 mg/kg/injection, schedule: Q01DX009 (ip), vehicle: saline with Tween-80): 122 % of control | T/C [7]: 120 % of control | T/C [4]: 154 % of control | T/C (dose: 88.0 mg/kg/injection, schedule: Q04DX003 (ip), vehicle: Klucel (hydroxypropylcellulose) (HPC)): 109 % of control

C#CC(c1ccccc1)(c1ccccc1)n1ccnc1
T/C [4]: 98 % of control | T/C [5]: 100 % of control | T/C [6]: 98 % of control
